# Measurements as given in patent publication US20100099631A1, “Novel Use” (priority 2006, published 2010).
# Where two headings read alike, the source gives them in different places.
# Experiments:
# [1] = Plasma glucose and insulin concentrations during 4 hr recovery after glycogen-depleting exercise; assay type: in vivo, human (trained cyclists)
# Procedure: (§1) Eight trained cyclists participated in a study which was approved by the Ethics Committee of RMIT University, Melbourne, Australia. Each subject participated in two experimental trials separated by 7 to 10 days. Trials were randomised and double-blind. Approximately 12 to 14 hours before each trial, the subjects reported to the laboratory to undertake 90 minutes of intense cycling (repeated sprints) to deplete muscle glycogen stores. The subjects were then fed a standardised low carbohydrate meal (60% of energy from fat) and had to refrain from solid feeding for the following 12 to 14 hours. During this period water was allowed ad libitum.
# (§2) The next morning, subjects reported to the laboratory between 0600 and 0700 hours. After a rest period of 10 minutes, an indwelling canula was inserted into the right forearm and a resting blood sample taken. Local anaesthesia was applied to the subjects skin to enable subcutaneous tissue and fascia of the vastus lateralis of the subjects right leg in preparation for muscle biopsies.
# (§3) After biopsy preparation, a bout of exhaustive exercise (submaximal continuous cycling) was undertaken to further deplete muscle glycogen stores. The exhaustive cycling protocol has been previously described by McInerney et al. (McInerney P., Lessard S. J., Burke L. M., Coffey V. G., Lo Giudice S. L., Southgate R. J., Hawley J. A. Failure to repeatedly supercompensate muscle glycogen stores in highly trained men. Med. Sci. Sports Excer. 37:404-411, 2005). During exercise the subjects were allowed to drink water ad libitum and were fan-cooled.
# (§4) Laboratory conditions were standardised for the tests with 50% relative humidity and a temperature of 20° C. Immediately on completion of the exercise and while subjects remained seated on the cycle ergometer, a muscle biopsy was taken and frozen within 15 seconds of the last muscle contraction. After the biopsy, subjects dismounted the ergometer and rested in a supine position. During one trial, subjects were fed 1 g/kg body mass (BM) of carbohydrate immediately upon cessation of exercise and thereafter 1 g/kg BM of carbohydrate after 60, 120 and 180 minutes of recovery (a total of 4 g/kg BM carbohydrate). In the second trial, subjects followed the same carbohydrate ingestion regimen but in addition consumed 4 mg/kg BM of caffeine immediately upon cessation of the exercise and then after 120 minutes during recovery. Blood samples were taken at regular intervals throughout the recovery period (0, 30, 60, 90, 120, 180 and 240 minutes). Muscle biopsies were taken immediately after exercise and after 1 and 4 hr of recovery. All muscle samples were stored at −80° C. until analysis.
# (§5) Blood samples were analysed for plasma glucose and insulin concentrations at rest, and at regular intervals during recovery. The protocols for blood analysis are routine and have been described previously ((McInerney P., Lessard S. J., Burke L. M., Coffey V. G., Lo Giudice S. L., Southgate R. J., Hawley J. A. Failure to repeatedly supercompensate muscle glycogen stores in highly trained men. Med. Sci. Sports Excer. 37:404-411, 2005). Plasma caffeine levels were analysed by high-performance liquid chromatography. Muscle samples were analysed for glycogen content immediately after exercise and after 1 and 4 hours of recovery.
# [2] = Plasma caffeine concentration by HPLC during recovery after exercise; assay type: in vivo, human (trained cyclists); conditions: for concentration at 1 h / concentration at 4 h: 4 mg/kg BM
# Procedure: as §1, §4, §5
# muscle glycogen = experiment: Muscle glycogen content and resynthesis rate (vastus lateralis biopsies) after exhaustive exercise; assay type: in vivo, human (trained cyclists); conditions: for Muscle Glycogen Resynthesis Rate: caffeine with carbohydrate
# Procedure: as §1, §2, §3, §4, §5
# muscle glucose oxidation = conditions: co-ingestion of caffeine and glucose during exercise; cited from earlier work
# [3] = 0 hr, immediately post exercise
# [4] = 0.5 hr recovery, caffeine 4 mg/kg BM at 0 and 120 min with carbohydrate 1 g/kg BM hourly
# [5] = 1 hr recovery, caffeine 4 mg/kg BM at 0 and 120 min with carbohydrate 1 g/kg BM hourly
# [6] = 1.5 hr recovery, caffeine 4 mg/kg BM at 0 and 120 min with carbohydrate 1 g/kg BM hourly
# [7] = 2 hr recovery, caffeine 4 mg/kg BM at 0 and 120 min with carbohydrate 1 g/kg BM hourly
# [8] = 3 hr recovery, caffeine 4 mg/kg BM at 0 and 120 min with carbohydrate 1 g/kg BM hourly
# [9] = 4 hr recovery, caffeine 4 mg/kg BM at 0 and 120 min with carbohydrate 1 g/kg BM hourly
# [10] = rest, before exercise and ingestion
compound,measurement,setting,value
"Cn1c(=O)c2c(ncn2C)n(C)c1=O [Caffeine, caffeine]",Plasma Glucose,[1]; [3],3.62 mmol/L
same,Plasma Insulin,[1]; [3],4.17 uU/mL
same,Plasma Glucose,[1]; [4],6.06 mmol/L
same,Plasma Insulin,[1]; [4],30.17 uU/mL
same,Plasma Glucose,[1]; [5],6.29 mmol/L
same,Plasma Insulin,[1]; [5],29.23 uU/mL
same,Plasma Glucose,[1]; [6],5.95 mmol/L
same,Plasma Insulin,[1]; [6],46.33 uU/mL
same,Plasma Glucose,[1]; [7],5.58 mmol/L
same,Plasma Insulin,[1]; [7],46.02 uU/mL
same,Plasma Glucose,[1]; [8],5.24 mmol/L
same,Plasma Insulin,[1]; [8],68.53 uU/mL
same,Plasma Glucose,[1]; [9],5.23 mmol/L
same,Plasma Insulin,[1]; [9],46.91 uU/mL
same,area under the insulin versus time curve compared to carbohydrate alone,"[1]; caffeine with carbohydrate, 4 hr recovery, P<0.05",significantly greater
same,Plasma Glucose,[1]; [10],4.04 mmol/L
same,Plasma Insulin,[1]; [10],9.36 uU/mL
same,concentration at 0 h,"[2]; human, plasma, oral, 0 hr, immediately post exercise",0 nM
same,concentration at 1 h,"[2]; human, plasma, oral, 1 hr recovery, oral caffeine 4 mg/kg BM at 0 and 120 min with carbohydrate, read-out: Plasma caffeine concentration",31.5 µM
same,concentration at 4 h,"[2]; human, plasma, oral, 4 hr recovery, oral caffeine 4 mg/kg BM at 0 and 120 min with carbohydrate, read-out: Plasma caffeine concentration",77.9 µM
same,concentration at 1 h,"[2]; human, plasma, oral, after 1 hr, carbohydrate and caffeine, read-out: plasma caffeine levels",30 µM
same,concentration at 4 h,"[2]; human, plasma, oral, after 4 hr, carbohydrate and caffeine, read-out: plasma caffeine levels",~80 µM
same,Plasma caffeine concentration,[2]; [10],0.00 µM
same,Muscle Glycogen Resynthesis Rate,muscle glycogen; 0-1 hr of recovery,63.52 mm/Kg · hr · dm
same,Muscle Glycogen Content,muscle glycogen; [3],76 mmol/Kg · dm
same,Muscle Glycogen Content,muscle glycogen; [5],149 mmol/Kg · dm
same,Muscle Glycogen Resynthesis Rate,muscle glycogen; 1 hr-4 hr of recovery,57.69 mm/Kg · hr · dm
same,Muscle Glycogen Content,muscle glycogen; [9],313 mmol/Kg · dm
same,Muscle Glycogen Content,muscle glycogen; after 1 hr of recovery,149±18 mmol/kg d.w
same,increase of muscle glycogen content,"muscle glycogen; after 1 hr of recovery, vs exhaustion",~80%
same,muscle glycogen levels,"muscle glycogen; after 4 hr of recovery, co-ingestion of caffeine with CHO, P<0.001 vs placebo",313±26 mmol/kg d.w.
same,muscle glycogen levels at exhaustion,"muscle glycogen; at exhaustion, before ingestion",76 ± 9 mmol/kg
same,"rates of muscle glycogen synthesis, higher than PL (carbohydrate alone)",muscle glycogen; from 1-4 hr of recovery,66%
same,rates of muscle glycogen synthesis,"muscle glycogen; from 1-4 hr of recovery, P<0.05 vs PL",57.7 ± 7.6 mmol/kg/h
same,"average rate of resynthesis, higher than PL (carbohydrate alone)",muscle glycogen; over the 4 hours of recovery,66%
same,average rate of resynthesis,"muscle glycogen; over the 4 hours of recovery, P<0.05 vs PL",57.71 ± 7.6 mmol/kg/h
same,increase in muscle glucose oxidation,muscle glucose oxidation,26%
